In PMC7774954, “Interactomic affinity profiling by holdup assay: Acetylation and distal residues impact the PDZome-binding specificity of PTEN phosphatase” (PLoS ONE, 2020):
pKd: −log10 of the molar value. *1 amine or outer side, *2 acyl side, *3 side chain or, on linkers, in order; H or OH if unused. Where a SMILES comes first, the peptide text is derived from it. The star is where a group is joined. X1 = O=C(CCCC[C@@H]1SC[C@@H]2NC(=O)N[C@@H]21)NCCCOCCOCCOCCCN*; Suc = O=C(CCC(=O)[*:2])[*:1]

How the values were obtained:
MAST2 PDZ 1 = target: T1, MAST2 PDZ 1 (Homo sapiens, UniProt Q6P0Q8); assay: Holdup assay, MAST2-1; assay type: binding
T1 construct: made in house; host or cells: E. coli
T1 sequence (Q6P0Q8 1104-1192 limits assumed): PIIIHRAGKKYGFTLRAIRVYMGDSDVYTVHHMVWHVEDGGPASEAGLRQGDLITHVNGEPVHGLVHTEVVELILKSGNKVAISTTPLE
Description: (§1) The holdup assay was performed on a Tecan freedom Evo200 robot with 384-well plates in singlicate for the three 11-mer PTEN variants and the 13-mer PTEN peptide as described in [31, 32]. Briefly, prior to interaction assay, 2.5 μL of streptavidin resin was saturated in each well with 20 μL of biotinylated PBM peptides (42 μM) and then washed twice with an excess of free biotin, while the reference resin was incubated only with biotin. Right before the holdup experiment, the PDZ library was spiked with an internal standard of lysozyme. Then, the biotin- or PBM-saturated resin was incubated, each in a distinct well of a 384-well plate, with complete cell lysates diluted so that the concentration of the tag-PDZ present in the crude extract is adjusted at 4 μM. After a sufficient time to reach complex equilibrium (15 min.), a fast and mild filtration step is performed and the tag-PDZ concentrations were measured by capillary electrophoresis instrument (LabChip GXII, PerkinElmer, Massachusets, USA). Standard markers were used to convert migration time into molecular weight on the LabChip software and inappropriate molecular weight markers were corrected or excluded.
(§2) For filtered data, the BI was extracted with the following equation (Eq 1) that estimates the depleted fraction after superimposition of the sample and reference electropherograms: BI=Iref−Ilig/Iref (1) where Iref and Ilig are the intensities of the tag-PDZ peaks measured, for each PDZ domain/PBM peptide interaction pair, in the biotin reference and the PBM electropherograms, respectively.
(§3) BIs were transformed into dissociation constants (KD) using the following formula: KD=([PDZtot]−BI·[PDZtot])·([PBMtot]−BI·[PDZtot])/BI·[PDZtot] (2) where [PDZtot] and [PBMtot] correspond to the total concentrations of the PDZ domain (usually around 4 μM) and the PBM peptide used during the assay. Since the PBMtot concentration in the resin during the holdup assay parameter may differ from one peptide to another and remains unknown, it is impossible to directly convert BI values into KD constants. We systematically determined the KD constants for a subset of PDZ/PBM pairs by competitive FP. […] For each PBM, the average peptide concentration was calculated after outlier rejection based on the absolute distances from the median as compared to three times the standard deviation (3σ rule), with never more than 2 values rejected.

SNX27 PDZ 1 = target: T2, SNX27 PDZ 1 (Homo sapiens, UniProt Q96L92); assay: Holdup assay, SNX27-1; assay type: binding
T2 construct: made in house; host or cells: E. coli
Description: as §1, §2, §3

ARHGAP23-1 = assay: Holdup assay, ARHGAP23-1; assay type: binding, human
ARHGEF12-1 = target: T3, ARHGEF12-1 (Homo sapiens, UniProt Q9NZN5); assay: Holdup assay, ARHGEF12-1; assay type: binding
T3 sequence (Q9NZN5 72-151): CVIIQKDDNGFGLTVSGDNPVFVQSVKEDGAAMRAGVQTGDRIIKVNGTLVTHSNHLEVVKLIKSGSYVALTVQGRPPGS

CARD11-1 = assay: Holdup assay, CARD11-1; assay type: binding, human
DLG1-1 = DLG1-1 (Homo sapiens, UniProt Q12959); assay: Holdup assay, DLG1-1; assay type: binding; conditions: DLG1-1
DLG2-1 = DLG2-1 (Homo sapiens, UniProt Q15700); assay: Holdup assay, DLG2-1; assay type: binding; conditions: DLG2-1
DLG2-2 = DLG2-2 (Homo sapiens, UniProt Q15700); assay: Holdup assay, DLG2-2; assay type: binding
DLG5-1 = assay: Holdup assay, DLG5-1; assay type: binding, human
DLG5-2 = assay: Holdup assay, DLG5-2; assay type: binding, human
DVL1-1 = assay: Holdup assay, DVL1-1; assay type: binding, human
DVL2-1 = assay: Holdup assay, DVL2-1; assay type: binding, human
GIPC1-1 = assay: Holdup assay, GIPC1-1; assay type: binding, human
HTRA2-1 = assay: Holdup assay, HTRA2-1; assay type: binding, human
HTRA4-1 = assay: Holdup assay, HTRA4-1; assay type: binding, human
IL16-3 = assay: Holdup assay, IL16-3; assay type: binding, human
INADL-5 = assay: Holdup assay, INADL-5; assay type: binding, human
LDB3-1 = assay: Holdup assay, LDB3-1; assay type: binding, human
LIN7B-1 = assay: Holdup assay, LIN7B-1; assay type: binding, human
LNX1-3 = assay: Holdup assay, LNX1-3; assay type: binding, human
LNX2-2 = target: T4, LNX2-2 (Homo sapiens, UniProt Q8N448); assay: Holdup assay, LNX2-2; assay type: binding
T4 sequence (Q8N448 339-422): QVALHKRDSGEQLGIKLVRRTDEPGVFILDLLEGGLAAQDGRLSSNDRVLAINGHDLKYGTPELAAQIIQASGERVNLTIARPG

LNX2-4 = assay: Holdup assay, LNX2-4; assay type: binding, human
MAGI2-1 = assay: Holdup assay, MAGI2-1; assay type: binding, human
MAGI3-4 = assay: Holdup assay, MAGI3-4; assay type: binding, human
MAGIX-1 = assay: Holdup assay, MAGIX-1; assay type: binding, human
MPDZ-1 = assay: Holdup assay, MPDZ-1; assay type: binding, human

CC[C@H](C)[C@H](NC(=O)[C@H](CCC(N)=O)NC(=O)[C@@H](NC(=O)[C@H](Cc1c[nH]cn1)NC(=O)[C@H](CCC(N)=O)NC(=O)[C@H](CC(=O)O)NC(=O)[C@H](CCC(=O)O)NC(=O)[C@H](CC(=O)O)NC(=O)[C@H](Cc1ccccc1)NC(=O)[C@@H]1CCCN1C(=O)CCC(=O)NCCCOCCOCCOCCCNC(=O)CCCC[C@@H]1SC[C@@H]2NC(=O)N[C@@H]21)[C@@H](C)O)C(=O)N[C@H](C(=O)N[C@@H](CCCCN)C(=O)N[C@H](C(=O)O)C(C)C)[C@@H](C)O [PTEN_13] ({X1-Suc}-PFDEDQHTQITKV-OH)
pKd (MAST2 PDZ 1): 5.89 | BI (MAST2 PDZ 1; MAST2-1): 0.88 | pKd (SNX27 PDZ 1): 5.25 | BI (SNX27 PDZ 1; PDZ domain SNX27-1): 0.717 | BI (ARHGAP23-1): -0.062 | BI (ARHGEF12-1): 0.169 | BI (CARD11-1): -0.006 | BI (DLG1-1): 0.011 | LogKD (DLG1-1): 3.826 | BI (DLG2-1): 0.035 | LogKD (DLG2-1): 3.826 | BI (DLG2-2): 0.054 | LogKD (DLG2-2): 3.826 | BI (DLG5-1): -0.048 | BI (DLG5-2): -0.092 | BI (DVL1-1): -0.013 | BI (DVL2-1): -0.026 | BI (GIPC1-1): -0.02 | BI (HTRA2-1): -0.097 | BI (HTRA4-1): 0.011 | BI (IL16-3): -0.001 | BI (INADL-5): -0.039 | BI (LDB3-1): -0.021 | BI (LIN7B-1): -0.079 | BI (LNX1-3): 0.016 | BI (LNX2-2): 0.136 | BI (LNX2-4): 0.093 | BI (MAGI2-1): -0.114 | BI (MAGI3-4): -0.112 | BI (MAGIX-1): 0.049 | BI (MPDZ-1): 0.011
